Each structure is given as a SMILES string.

Broadly, the EC50 is the concentration needed to bring the measured effect to its halfway point. The low end stands for a more potent agent, the high end for a less potent agent.

The target of the assay is human GPR40 receptor (Homo sapiens, UniProt O14842). Description: IP1 accumulation measurements using the IPOne assay system. Format: cell-based. To be noted: 1321N1 cells stably expressing human GPR40 receptor, stimulation 1 h at 37° C. On the procedure:
IP1 accumulation measurements using the IPOne assay system—1321N1 cells stably expressing human GPR40 receptor (Euroscreen, Belgium) are seeded 24 h before the assay in white 384-well plates in culture medium containing 10% FCS, 1% Na-Pyruvate and 400 μg/mL G418. IPi is assayed according to the manufacturer's description (Cisbio Bioassays, France). In brief, the assay is started by substitution of the culture medium by stimulation buffer (Hepes 10 mM, CaCl2 1 mM, MgCl2 0.5 mM, KCl 4.2 mM, NaCl 146 mM, glucose 5.5 mM and LiCl 50 mM, pH 7.4). Cells are stimulated for 1 h at 37° C., 5% CO2 by addition of the compounds that are diluted in stimulation buffer containing LiCl. Assays are stopped by adding HTRF-conjugates (IP1-d2 and Anti-IP1 cryptate Tb) and lysis buffer, provided by the manufacturer. After an incubation time of 1 h at room temperature plates are measured using an EnVision™, Perkin Elmer. The obtained fluorescence ratios at 665/615 […] are then used to calculate the pEC50 values using Assay Explorer 3.3 Software (Accelrys, Inc.) by interpolation using an IP1 reference curve and subsequent sigmoidal curve fitting allowing for a variable hill slope.

human GPR40 receptor, sequence (O14842 whole entry): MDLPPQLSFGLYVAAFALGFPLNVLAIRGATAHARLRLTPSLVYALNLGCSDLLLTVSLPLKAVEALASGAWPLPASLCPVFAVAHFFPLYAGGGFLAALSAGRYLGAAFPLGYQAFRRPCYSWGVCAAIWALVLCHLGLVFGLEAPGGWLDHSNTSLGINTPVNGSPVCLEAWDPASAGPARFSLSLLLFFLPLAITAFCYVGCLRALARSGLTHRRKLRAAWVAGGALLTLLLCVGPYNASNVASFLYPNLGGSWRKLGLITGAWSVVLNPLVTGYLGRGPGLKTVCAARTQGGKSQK

The compound `NCc1ccc(F)c(-c2cc(CNc3ccc([C@H]4C[C@@H]4C(=O)O)cn3)c(F)cc2F)c1` [Example 3, (1S,2S)-2-{6-[(5′-Aminomethyl-4,6,2′-trifluoro-biphenyl-3-ylmethyl)-amino]-pyridin-3-yl}-cyclopropanecarboxylic Acid] returned an EC50 of over 10 µM.

`Cc1cc(OCCC(C)(C)O)cc(C)c1-c1cc(CNc2ccc([C@H]3C[C@@H]3C(=O)O)cn2)ccc1C(F)(F)F` [Example 5, (1S,2S)-2-(6-{[4′-(3-Hydroxy-3-methyl-butoxy)-2′,6′-dimethyl-6-trifluoromethyl-biphenyl-3-ylmethyl]-amino}-pyridin-3-yl)-cyclopropanecarboxylic Acid] displayed an EC50 of 0.012 µM.

For the compound `O=C(O)[C@H]1C[C@@H]1c1ccc(NCc2ccc(C(F)(F)F)c(-c3ccc(OC(F)(F)F)cc3)c2)nc1` [Example 6, (1S,2S)-2-{6-[(4′-Trifluoromethoxy-6-trifluoromethyl-biphenyl-3-ylmethyl)-amino]-pyridin-3-yl}-cyclopropanecarboxylic Acid], a half-maximal response (EC50) required 0.038 µM.

`Cc1cc(OCCCS(C)(=O)=O)cc(C)c1-c1cccc(CNc2ccc([C@H]3C[C@@H]3C(=O)O)cn2)c1` [Example 8, (1S,2S)-2-(6-{[4′-(3-Methanesulfonyl-propoxy)-2′,6′-dimethyl-biphenyl-3-ylmethyl]-amino}-pyridin-3-yl)-cyclopropanecarboxylic Acid] gave an EC50 of 0.05 µM.

Turning to `Cc1cc(-c2cnccn2)cc(C)c1-c1ccc(F)c(CNc2ccc([C@H]3C[C@@H]3C(=O)O)cn2)c1` [Example 11], the EC50 came to 0.021 µM.

The compound `Cc1cc(OCCCS(C)(=O)=O)cc(C)c1-c1ccc(F)c(CNc2ccc([C@H]3C[C@@H]3C(=O)O)cn2)c1` [Example 12] yielded an EC50 of over 10 µM.

In turn, `Cc1cc(-c2ccc(=O)n(C)c2)cc(C)c1-c1ccc(F)c(CNc2ccc([C@H]3C[C@@H]3C(=O)O)cn2)c1` [Example 13] returned an EC50 of 0.017 µM.

The compound `Cc1cc(-c2nnn(CC(C)(C)O)n2)cc(C)c1-c1ccc(F)c(CNc2ccc([C@H]3C[C@@H]3C(=O)O)cn2)c1` [Example 14] registered a half-maximal effective concentration (EC50) of 0.011 µM.

The compound `Cc1cc(OCC2(O)CCSCC2)cc(C)c1-c1ccc(F)c(CNc2ccc([C@H]3C[C@@H]3C(=O)O)cn2)c1` [Example 16] returned an EC50 of 0.064 µM.

On to `Cc1cc(OCC(=O)O)cc(C)c1-c1ccc(F)c(CNc2ccc([C@H]3C[C@@H]3C(=O)O)cn2)c1` [Example 17], for which the response was half-maximal at 0.353 µM (EC50).

Turning to `COc1cc(F)c(-c2ccc(F)c(CNc3ccc([C@H]4C[C@@H]4C(=O)O)cn3)c2)c(F)c1` [Example 19], the EC50 is 2.1 µM.

For the compound `O=C(O)[C@H]1C[C@@H]1c1ccc(NCc2cc(-c3c(F)cccc3F)ccc2F)nc1` [Example 20], the concentration giving a half-maximal response (EC50) is 2.3 µM.

Compound `O=C(O)[C@H]1C[C@@H]1c1ccc(NCc2cc(-c3c(C(F)(F)F)cccc3C(F)(F)F)ccc2F)nc1` [Example 21] had an EC50 of 0.834 µM.

Compound `COc1c(F)c(F)c(-c2ccc(F)c(CNc3ccc([C@H]4C[C@@H]4C(=O)O)cn3)c2)c(F)c1F` [Example 22] displayed an EC50 of 0.477 µM.

`N#Cc1cccc(C#N)c1-c1ccc(F)c(CNc2ccc([C@H]3C[C@@H]3C(=O)O)cn2)c1` [Example 23] had an EC50 of over 10 µM.

In turn, `O=C(O)[C@H]1C[C@@H]1c1ccc(NCc2cc(-c3ccccc3C(F)(F)F)ccc2F)nc1` [Example 24] showed an EC50 of 0.204 µM.

Compound `Cc1cc(C(=O)O)cc(C)c1-c1ccc(F)c(CNc2ccc([C@H]3C[C@@H]3C(=O)O)cn2)c1` [Example 27] yielded an EC50 of over 10 µM.

As for `Nc1cc(F)c(-c2ccc(F)c(CNc3ccc([C@H]4C[C@@H]4C(=O)O)cn3)c2)c(F)c1` [Example 28], the EC50 was determined as 6.72 µM.

Compound `O=C(O)[C@H]1C[C@@H]1c1ccc(NCc2cc(-c3c(F)cc(OC4CC4)cc3F)ccc2F)nc1` [Example 29] displayed an EC50 of 0.57 µM.

In the case of `O=C(O)[C@H]1C[C@@H]1c1ccc(NCc2cc(-c3c(Cl)cccc3Cl)ccc2F)nc1` [Example 31], a half-maximal effect (EC50) was put at 0.105 µM.

Regarding `N#CC1(c2ccccc2-c2ccc(F)c(CNc3ccc([C@H]4C[C@@H]4C(=O)O)cn3)c2)CC1` [Example 32], the midpoint of the response, the EC50, lay at 1.94 µM.

Take `COc1cc(OC)c(Cl)c(-c2ccc(F)c(CNc3ccc([C@H]4C[C@@H]4C(=O)O)cn3)c2)c1Cl` [Example 33]: the half-maximal effective concentration (EC50) was determined as 0.128 µM.

`Cc1cc(C(N)=O)cc(C)c1-c1ccc(F)c(CNc2ccc([C@H]3C[C@@H]3C(=O)O)cn2)c1` [Example 34] came in with an EC50 of 0.612 µM.

Turning to `Cc1cc(OCC2CCOC2)cc(C)c1-c1ccc(F)c(CNc2ccc([C@H]3C[C@@H]3C(=O)O)cn2)c1` (stereo partly drawn) [Example 36], a half-maximal effect (EC50) was put at 0.085 µM.

For the compound `Cc1cc(-c2ccn(C)c(=O)c2)cc(C)c1-c1ccc(F)c(CNc2ccc([C@H]3C[C@@H]3C(=O)O)cn2)c1` [Example 44], the response was half-maximal at 0.032 µM (EC50).

With `Cc1cc(OCC2(C)COC2)cc(C)c1-c1ccc(F)c(CNc2ccc([C@H]3C[C@@H]3C(=O)O)cn2)c1` [Example 45], the 50% effective concentration (EC50) amounted to 0.147 µM.

Compound `Cc1cc(OCC(C)(C)C#N)cc(C)c1-c1ccc(F)c(CNc2ccc([C@H]3C[C@@H]3C(=O)O)cn2)c1` [Example 46] gave an EC50 of 0.096 µM.

On to `Cc1cc(OCc2ccccc2)cc(C)c1-c1ccc(F)c(CNc2ccc([C@H]3C[C@@H]3C(=O)O)cn2)c1` [Example 47], for which the 50% effective concentration (EC50) was found to be 0.107 µM.

Consider `Cc1cc(-c2ccn(C)c(=O)n2)cc(C)c1-c1ccc(F)c(CNc2ccc([C@H]3C[C@@H]3C(=O)O)cn2)c1` [Example 49], for which the midpoint of the response, the EC50, lay at 0.072 µM.

`Cc1cc(-c2ccnn2C)cc(C)c1-c1ccc(F)c(CNc2ccc([C@H]3C[C@@H]3C(=O)O)cn2)c1` [Example 50] gave an EC50 of 0.025 µM.

`COc1cc(OC)c(F)c(-c2ccc(F)c(CNc3ccc([C@H]4C[C@@H]4C(=O)O)cn3)c2)c1F` [Example 52]: the EC50 amounted to 1.34 µM.

As to `CC(C)c1ccccc1-c1ccc(F)c(CNc2ccc([C@H]3C[C@@H]3C(=O)O)cn2)c1` [Example 54], the EC50 is 0.317 µM.

Compound `Cc1cc(OCC2(O)CCS(=O)(=O)CC2)cc(C)c1-c1ccc(F)c(CNc2ccc([C@H]3C[C@@H]3C(=O)O)cn2)c1` [Example 57] returned a concentration giving a half-maximal response (EC50) of 0.422 µM.

Compound `Cc1cc(OCC2CCOCC2)cc(C)c1-c1ccc(F)c(CNc2ccc([C@H]3C[C@@H]3C(=O)O)cn2)c1` [Example 58] yielded an EC50 of 0.043 µM.

For `CNC(=O)c1cc(C)c(-c2ccc(F)c(CNc3ccc([C@H]4C[C@@H]4C(=O)O)cn3)c2)c(C)c1` [Example 59], the EC50 came to 0.375 µM.

Compound `Cc1cc(C(=O)N(C)C)cc(C)c1-c1ccc(F)c(CNc2ccc([C@H]3C[C@@H]3C(=O)O)cn2)c1` [Example 60] returned an EC50 of 0.55 µM.

As for `COc1cc(F)c(-c2cc(CNc3ccc([C@H]4C[C@@H]4C(=O)O)cn3)c(F)cc2F)c(F)c1` [Example 62], the midpoint of the response, the EC50, lay at 0.668 µM.

Compound `O=C(O)[C@H]1C[C@@H]1c1ccc(NCc2cc(-c3c(F)cccc3F)c(F)cc2F)nc1` [Example 63] registered an EC50 of 0.931 µM.

In turn, `COc1c(F)c(F)c(-c2cc(CNc3ccc([C@H]4C[C@@H]4C(=O)O)cn3)c(F)cc2F)c(F)c1F` [Example 64] came in with a concentration giving a half-maximal response (EC50) of 0.123 µM.

The compound `N#Cc1cccc(C#N)c1-c1cc(CNc2ccc([C@H]3C[C@@H]3C(=O)O)cn2)c(F)cc1F` [Example 65] gave an EC50 of over 10 µM.

`O=C(O)[C@H]1C[C@@H]1c1ccc(NCc2cc(-c3ccccc3C(F)(F)F)c(F)cc2F)nc1` [Example 66]: the EC50 amounted to 0.048 µM.

The compound `Cc1cc(C(=O)O)cc(C)c1-c1cc(CNc2ccc([C@H]3C[C@@H]3C(=O)O)cn2)c(F)cc1F` [Example 69] had an EC50 of 5.96 µM.

As to `Nc1cc(F)c(-c2cc(CNc3ccc([C@H]4C[C@@H]4C(=O)O)cn3)c(F)cc2F)c(F)c1` [Example 70], the response was half-maximal at 3.63 µM (EC50).

Turning to `O=C(O)[C@H]1C[C@@H]1c1ccc(NCc2cc(-c3c(F)cc(OC4CC4)cc3F)c(F)cc2F)nc1` [Example 71], the EC50 stood at 0.14 µM.

`COc1cc(OC)c(-c2cc(CNc3ccc([C@H]4C[C@@H]4C(=O)O)cn3)c(F)cc2F)c(OC)c1` [Example 72] returned an EC50 of 0.838 µM.

For `O=C(O)[C@H]1C[C@@H]1c1ccc(NCc2cc(-c3c(Cl)cccc3Cl)c(F)cc2F)nc1` [Example 73], a half-maximal response (EC50) required 0.04 µM.

`N#CC1(c2ccccc2-c2cc(CNc3ccc([C@H]4C[C@@H]4C(=O)O)cn3)c(F)cc2F)CC1` [Example 74] had a concentration giving a half-maximal response (EC50) of 1.34 µM.

The compound `COc1cc(OC)c(Cl)c(-c2cc(CNc3ccc([C@H]4C[C@@H]4C(=O)O)cn3)c(F)cc2F)c1Cl` [Example 75] had an EC50 of 0.05 µM.

`Cc1cc(C(N)=O)cc(C)c1-c1cc(CNc2ccc([C@H]3C[C@@H]3C(=O)O)cn2)c(F)cc1F` [Example 76] gave a concentration giving a half-maximal response (EC50) of 0.34 µM.

Take `Cc1cc(OCC2CCOC2)cc(C)c1-c1cc(CNc2ccc([C@H]3C[C@@H]3C(=O)O)cn2)c(F)cc1F` (stereo partly drawn) [Example 78]: a half-maximal response (EC50) required 0.005 µM.

The compound `Cc1cc(O[C@H]2CCOC2)cc(C)c1-c1cc(CNc2ccc([C@H]3C[C@@H]3C(=O)O)cn2)c(F)cc1F` [Example 79] displayed an EC50 of 0.042 µM.

Compound `O=C(O)[C@H]1C[C@@H]1c1ccc(NCc2cc(-c3c(F)cc(F)cc3F)c(F)cc2F)nc1` [Example 81] came in with an EC50 of 0.491 µM.

In turn, `Cc1cc(CO)cc(C)c1-c1cc(CNc2ccc([C@H]3C[C@@H]3C(=O)O)cn2)c(F)cc1F` [Example 82] showed a 50% effective concentration (EC50) of 0.236 µM.

`Cc1cc(OCC(C)(C)O)cc(C)c1-c1cc(CNc2ccc([C@H]3C[C@@H]3C(=O)O)cn2)c(F)cc1F` [Example 83] registered an EC50 of 0.104 µM.

Values taken from patent US10538490B2, “Benzylaminopyridylcyclopropanecarboxylic acids, pharmaceutical compositions and uses thereof” (Boehringer Ingelheim International GmbH, priority 2016, dated 2020).
